# Assay results: patent US5574043A, “Certain [1,2,5-thiadiazol-4-yl]-1-azabicyclo [3.2.1]octane derivatives and their pharmaceutical uses” (Novo Nordisk A/S, priority 1995, dated 1996)
# Structures can show the parent of a compound that is named as a salt.
# Molecular target: muscarinic acetylcholine receptors
# Experiment: Inhibition of specific binding of 3H-Oxotremorine-M (OXO BINDING) in vitro, rat cortex
# Parameters: species or system male Wistar rats
# Conditions: rat cortex homogenate, 3H-Oxotremorine 1.0 nM, 30 min at 25° C., pH 7.4
# Excerpt: The pharmacological properties of the compounds of the invention can be illustrated by determining their capability to inhibit the specific binding of ^3 H-Oxotremorine-M (^3 H-Oxo). Birdsdall N. J. M., Hulme E. C., and Burgen A. S. V. (1980). "The Character of Muscarinic Receptors in Different Regions of the Rat Brain". Proc. Roy. Soc. London (Series B) 207,1.
# ^3 H-Oxo labels muscarinic receptor in the CNS (with a preference for agonist domains of the receptors). Three different sites are labelled by ^3 H-Oxo. […] Using the present experimental conditions only the high and medium affinity sites are determined.
# The inhibitory effects of compounds on ^3 H-Oxo binding reflects the affinity for muscarinic acetylcholine receptors.
# All preparations are performed at 0°-4° C. unless otherwise indicated. Fresh cortex (0.1-1 g) from male Wistar rats (150-250 g) is homogenized for 5-10 s in 10 ml 20 mM Hepes pH: 7.4, with an Ultra-Turrax homogenizer. The homogenizer, is rinsed with 10 ml of buffer and the combined suspension centrifuged for 15 min at 40,000×g. The pellet is washed three times with buffer. In each step the pellet is homogenized as before in 2×10 ml of buffer and centrifuged for 10 min at 40,000×g.
# The final pellet is homogenized in 20 mM Hepes pH: 7.4 (100 ml per g of original tissue) and used for binding assay. Aliquots of 0.5 ml is added 25 μl of test solution and 25 μl of ^3 H-Oxotremorine (1.0 nM, final concentration) mixed and incubated for 30 min at 25° C. Non-specific binding is determined in triplicate using arecoline (1 μg/ml, final concentration) as the test substance. After incubation samples are added 5 ml of ice-cold buffer and poured directly onto Whatman GF/C glass fibre filters under suction and immediately washed 2 times with 5 ml of ice-cold buffer. The amount of radioactivity on the filters are determined by conventional liquid scintillation counting. Specific binding is total binding minus non specific binding.
# Test substances are dissolved in 10 ml water (if necessary heated on a steam bath for less than 5 minutes) at a concentration of 2.2 mg/ml.
# The test value will be given as IC50 (the concentration (ng/ml) of the test substance which inhibits the specific binding of ^3 H-Oxo by 50%).
# IC50 =(applied test substance concentration) [formula] where Co is specific binding in control assays and Cx is the specific binding in the test assay. (The calculations assume normal mass-action kinetics).
row,Structure (SMILES),Inhibition in vitro OXO BINDING IC50
1,"CCCSc1nsnc1[C@@H]1CN2CCC[C@@H]1C2 (single isomer, unassigned) [Compound 113, (+)-Exo-6-(3-propylthio-1,2,5-thiadiazol-4-yl)-1-azabicyclo[3.2.1]octane (+) L-tartrate]",0.26 ng/mL
2,"CCOc1nsnc1[C@@H]1CN2CCC[C@@H]1C2 (relative stereo) [Compound 118, Exo-6-(3-ethoxy-1,2,5-thiadiazol-4-yl)-1-azabicyclo[3.2.1]octane oxalate]",0.35 ng/mL
3,"FC(F)(F)C(F)(F)C(F)(F)COc1nsnc1[C@@H]1CN2CCC[C@@H]1C2 (relative stereo) [Compound 116, Exo-6-(3-(2,2,3,3,4,4,4-heptafluorobutyloxy)-1,2,5-thiadiazol-4-yl)-1-azabicyclo[3.2.1]octane oxalate]",1.4 ng/mL
4,"c1ccc(CCCSc2nsnc2[C@H]2CN3CC[C@H]2C3)cc1 (relative stereo) [Compound 41, Exo-3-(3-(3-phenylpropylthio)-1,2,5-thiadiazol-4-yl)-1-azabicyclo[2.2.1]heptane oxalate]",0.56 ng/mL
5,"N#CCCCCSc1nsnc1[C@H]1CN2CCC[C@H]1C2 (relative stereo) [Compound 78, Exo-6-(3-(4-cyanobutylthio)-1,2,5-thiadiazol-4-yl)-1-azabicyclo[3.2.1]octane oxalate]",0.30 ng/mL
6,"O=C(O)/C=C/C(=O)O.c1csc(CCCOc2nsnc2C2CN3CCC2CC3)c1 (stereo not drawn) [Compound 110, 3-(3-(3-(2-Thienyl)propoxy)-1,2,5-thiadiazol-4-yl)-1-azabicyclo[2.2.2]octane fumarate]",1.1 ng/mL
7,"CC(C)CCCSc1nsnc1[C@H]1CN2CCC[C@@H]1C2 (relative stereo) [Compound 87, Endo-6-(3-isohexylthio-1,2,5-thiadiazol-4-yl)-1-azabicyclo[3.2.1]octane oxalate]",10 ng/mL
8,"CCCCSc1nsnc1C1CN2CCC1CC2.O=C(O)/C=C/C(=O)O (stereo not drawn) [Compound 13, 3-(3-Butylthio-1,2,5-thiadiazol-4-yl)-1-azabicyclo[2.2.2]octane fumarate]",0.65 ng/mL
9,"CCCCCSc1nsnc1[C@H]1CN2CCC[C@H]1C2 (relative stereo) [Compound 31, Exo-6-(3-pentylthio-1,2,5-thiadiazol-4-yl)-1-azabicyclo[3.2.1]octane oxalate]",0.6 ng/mL
10,"CCCCCCOc1nsnc1C1=CN2CCC1CC2.O=C(O)C(=O)O [Compound 5, 3-(3-Hexyloxy-1,2,5-thiadiazol-4-yl)-1-azabicyclo[2.2.2]oct-2-ene oxalate]",18 ng/mL
11,"N#CCCSc1nsnc1[C@H]1CN2CCC[C@@H]1C2 (relative stereo) [Compound 90, Endo-6-(3-(2-cyanoethylthio)-1,2,5-thiadiazol-4-yl)-1-azabicyclo[3.2.1]octane oxalate]",3.3 ng/mL
12,"N#CCSc1nsnc1C1CN2CCC1CC2.O=C(O)C(=O)O (stereo not drawn) [Compound 103, 3-(3-Cyanomethylthio-1,2,5-thiadiazol-4-yl)-1-azabicyclo[2.2.2]octane oxalate]",0.92 ng/mL
13,"CCCCSc1nsnc1[C@H]1CN2CCC[C@@H]1C2 (relative stereo) [Compound 24, Endo-6-(3-butylthio-1,2,5-thiadiazol-4-yl)-1-azabicyclo[3.2.1]octane oxalate]",0.52 ng/mL
14,"CCOc1nsnc1C1=C(Cl)CC2CCC1N2.O=C(O)C(=O)O (stereo not drawn) [Compound 43, 3-Chloro-2-(3-ethoxy-1,2,5-thiadiazol-4-yl)-8-azabicyclo[3.2.1]oct-2-ene oxalate]",2.33 ng/mL
15,"c1ccc(CCCSc2nsnc2[C@@H]2CN3CC[C@H]2C3)cc1 (relative stereo) [Compound 35, Endo-3-(3-(3-phenylpropylthio)-1,2,5-thiadiazol-4-yl)-1-azabicyclo[2.2.1]heptane oxalate]",1.9 ng/mL
16,"COc1nsnc1[C@@H]1CN2CCC[C@@H]1C2 (relative stereo) [Compound 117, Exo-6-(3-methoxy-1,2,5-thiadiazol-4-yl)-1-azabicyclo[3.2.1]octane oxalate]",2.0 ng/mL
17,"CCCCCCSc1nsnc1[C@H]1CN2CCC[C@@H]1C2 (relative stereo) [Compound 17, Endo-6-(3-hexylthio-1,2,5-thiadiazol-4-yl)-1-azabicyclo[3.2.1]octane oxalate]",3.2 ng/mL
18,"CCCSc1nsnc1C1CN2CCC1CC2.O=C(O)C(=O)O (stereo not drawn) [Compound 53, 3-(3-Propylthio-1,2,5-thiadiazol-4-yl)-1-azabicyclo[2.2.2]octane oxalate]",0.3 ng/mL
19,"Clc1nsnc1[C@H]1CN2CCC[C@@H]1C2 (relative stereo) [Compound 16, Endo-6-(3-chloro-1,2,5-thiadiazol-4-yl)-1-azabicyclo[3.2.1]octane-oxalate]",67 ng/mL
20,"C=CCCCCOc1nsnc1C1CN2CCC1CC2.O=C(O)/C=C/C(=O)O (stereo not drawn) [Compound 48, 3-(3-(5-Hexenyloxy)-1,2,5-thiadiazol-4-yl)-1-azabicyclo[2.2.2]octane fumarate]",0.43 ng/mL
21,"CCCCCCCSc1nsnc1[C@H]1CN2CCC[C@H]1C2 (relative stereo) [Compound 75, Exo-6-(3-heptylthio-1,2,5-thiadiazol-4-yl)-1-azabicyclo[3.2.1]octane oxalate]",0.96 ng/mL
22,"O=C(O)C(=O)O.OC1(c2nsnc2Cl)CN2CCC1CC2 (stereo not drawn) [Compound 2, 3-(3-Chloro-1,2,5-thiadiazol-4-yl)-3-hydroxy-1-azabicyclo[2.2.2]octane oxalate]",270 ng/mL
23,"CCCCCCSc1nsnc1[C@H]1CN2CCC[C@H]1C2 (relative stereo) [Compound 29, Exo-6-(3-hexylthio-1,2,5-thiadiazol-4-yl)-1-azabicyclo[3.2.1]octane oxalate]",0.39 ng/mL
24,"CC(C)CCSc1nsnc1[C@@H]1CN2CCC[C@H]1C2 (relative stereo) [Compound 86, Endo-6-(3-isopentylthio-1,2,5-thiadiazol-4-yl)-1-azabicyclo[3.2.1]octane oxalate]",3.5 ng/mL
25,"N#CCSc1nsnc1[C@H]1CN2CCC[C@@H]1C2 (relative stereo) [Compound 89, Endo-6-(3-cyanomethylthio-1,2,5-thiadiazol-4-yl)-1-azabicyclo[3.2.1]octane oxalate]",12 ng/mL
26,"CC(C)CCCOc1nsnc1[C@@H]1CN2CCC[C@@H]1C2 (relative stereo) [Compound 123, Exo-6-(3-isohexyloxy-1,2,5-thiadiazol-4-yl)-1-azabicyclo[3.2.1]octane dioxalate]",0.47 ng/mL
27,"CCCSc1nsnc1[C@@H]1CN2CCC[C@@H]1C2 (single isomer, unassigned) [Compound 114, (-)-Exo-6-(3-propylthio-1,2,5-thiadiazol-4-yl)-1-azabicyclo[3.2.1]octane (-) D-tartrate]",0.15 ng/mL
